Here are results for two compounds from US11091497B2, “Pyrano[3,4-b]pyrazine kappa opioid receptor ligands for treating addiction, pruritus, pain, and inflammation” (The Rockefeller University, priority 2017, dated 2021).

Molecules are shown by their SMILES.

The target of data set [1] is T1, kappa opioid receptor (PathHunter U2OS hOPRK1 membranes) (Homo sapiens, UniProt P41145).
T1 construct: host or cells: U2OS (PathHunter U2OS hOPRK1 β-arrestin cell line)
In words: Tritiated U69,593 binding for KOP-R membranes.

Data set [2] has as its target T2, kappa opioid receptor (PathHunter U2OS hOPRK1 β-arrestin cell line) (Homo sapiens, UniProt P41145).
T2 construct: host or cells: U2OS (PathHunter U2OS hOPRK1 β-arrestin cell line)
In words: β-arrestin coupling (PathHunter Detection Kit). It is filed as cell-based. As to conditions: for Emax at 10 µM: U2OS, read-out: β-arrestin coupling % efficacy.

The test system of the next data set is Serum prolactin levels. In words: Prolactin release in mice. It is filed as in vivo. As to conditions: intraperitoneal, 30 minutes prior to sampling. Here is the method: Mice were injected intraperitoneally with the compound to be tested 30 minutes prior to sampling. Trunk blood was collected by rapid decapitation, followed within 2 hours by preparation of serum. Serum prolactin levels were determined using a commercially available enzyme-linked immunoassay (AbCam, Cambridge, UK) following dilution of serum 5-fold in assay buffer.

A further data set has as its system mice. In words: Rotarod incoordination in mice. It is filed as in vivo. The settings on record: intraperitoneal. From the text:
In the case of rotarod incoordination, kappa agonist effects in this assay reflect kappa-opioid receptor arrestin mediated signaling. This assay is thought to be a sensitive measure of the sedative properties of kappa opioid receptor agonists. Generally, a compound which has reduced efficacy in the coupling of arrestin with the kappa opioid receptor is thought to have a lowered potential for the sedative side effects of kappa opioid receptor ligands. Rotarod assays in vivo are employed to confirm this possibility.
Rotarod experiments were conducted with mice using a dedicated rodent rotarod apparatus, with up to five animals tested concurrently (IITC Life Science, Woodland Hills, Calif., USA). Rotarod rotation rate begins at 3 rotations per minute, and ramps to 30 rotations per minute over the course of 300 s, at which time the assay is terminated and animals removed to their home cage. Animals were acclimated to the rotarod on at least two occasions prior to the day of the test. On the day of the test, baseline times for each animal to fall off the rotarod were recorded. Mice were then injected intraperitoneally with vehicle or compound, and rotarod measurements conducted, beginning 0-2 minutes after injection, and then subsequently at select time points thereafter.

T2 sequence (P41145 whole entry): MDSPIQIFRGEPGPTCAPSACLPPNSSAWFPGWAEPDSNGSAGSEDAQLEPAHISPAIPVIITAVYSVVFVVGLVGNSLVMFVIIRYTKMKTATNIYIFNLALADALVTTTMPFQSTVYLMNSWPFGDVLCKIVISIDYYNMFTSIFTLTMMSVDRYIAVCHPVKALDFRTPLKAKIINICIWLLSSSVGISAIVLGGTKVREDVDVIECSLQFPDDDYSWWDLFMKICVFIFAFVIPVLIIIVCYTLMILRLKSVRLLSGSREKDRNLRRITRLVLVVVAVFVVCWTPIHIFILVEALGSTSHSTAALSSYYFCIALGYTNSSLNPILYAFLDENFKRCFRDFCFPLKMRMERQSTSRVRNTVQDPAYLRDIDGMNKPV
T1 sequence (P41145 whole entry): as above

By IC50 is commonly meant the concentration that gives 50% inhibition. For orientation: EC50 means the concentration needed to bring the measured effect to its halfway point. Turning to `O=C(Cc1ccc(Cl)c(Cl)c1)N1CCN[C@@H]2COC[C@H](N3CCCC3)[C@H]21` (racemic) [Example 5A22, 1-[8-pyrrolidin-1-yl-2,3,4,4a,5,7,8,8a-octahydropyrano(3,4-b)pyrazin-1-yl]-2-(3,4-dichlorophenyl)ethanone], in data set [1], the IC50 was determined as 65 nM. The EC50 in data set [2] amounted to 1.13 µM. The Emax at 10 µM in data set [2] was 67%. Moreover, in the data set with Serum prolactin levels (5 mg/kg), the prolactin release result is recorded as “significant prolactin release”. Also, the rotarod incoordination entry with mice (10 mg/kg) was “no significant incoordination”; in the data set on mice (30 mg/kg), “significant incoordination”; in the data set with mice (90 mg/kg), “significant incoordination”.

As to `CN1CCN(C(=O)Cc2ccc(Cl)c(Cl)c2)[C@H]2[C@H]1COC[C@@H]2N1CCCC1` (racemic) [Example 5A23, 1-[4-methyl-8-pyrrolidin-1-yl-3,4a,5,7,8,8a-hexahydro-2H- -pyrano(3,4-b)pyrazin-1-yl]-2-(3,4-dichlorophenyl)ethanone], the IC50 in data set [1] worked out at 103 nM. Besides, the concentration for a half-maximal effect (EC50) in data set [2] was 5.54 µM. For the same compound, in data set [2], the Emax at 10 µM came out at 44%. Further, the prolactin release result in the data set with Serum prolactin levels (30 mg/kg) was “significant prolactin release”. In addition, the rotarod incoordination result with mice (10 mg/kg) is “no significant incoordination”; in the data set on mice (30 mg/kg), “statistically significant incoordination”; in the data set with mice (90 mg/kg) it was “statistically significant incoordination”.
